Data on three compounds can be found in patent US8815862B2, “Co-crystal intermediates of rosuvastatin and methods of using same” (F.I.S. Fabbrica Italiana Sintetici S.p.A., priority 2011, dated 2014).

The conditions of data set [1]: cited from earlier work.
Data set [2] is described as follows: Stability study at 40° C. under vacuum (impurity/lactone content). The class given is physicochemical. Conditions: for lactone content after storage: 20 and 40 hours (final value); for lactone impurity content of starting product: before storage; for chemical stability compared to Rosuvastatin acid: 40 h, hemihydrate. As for the experimental part:
Stability Studies at 40° C. Under Vacuum of Co-crystal Rosuvastatin 2-Aminopyrimidine Hemihydrates Compared to Rosuvastatin
The co-crystal has only 3 impurities at 5.651, 5.948 and 6.674 (lactone) min.
For RSV, only some impurities (impurities in common with the co-crystal or impurities with a significant variation) were studied.
Storage conditions: 40° C. under vacuum for 20 and 40 hours.

A short description of data set [3]: Polymorphism observed during screening and purification studies. Particulars: during screening and studies of the purification of Rosuvastatin. The format is physicochemical. The text has this:
Co-crystals of the present invention have a relative lack of polymorphism due to the higher complexity of the crystal structure: polymorphs of co-crystal Rosuvastatin 2-aminopyrimidine hemihydrate were not observed during screening and studies of the purification of Rosuvastatin. In contrast, form salts of Rosuvastatin amines having different polymorphs.

Data set [4] in a line: Solid-state stability, stored at room temperature in a sealed vial (XRPD). The format is physicochemical. Conditions: 3 weeks.
Data set [5] can be described thus: Solubility in a series of solvents at room temperature. The format is physicochemical. The text has this: The solubility of co-crystal Rosuvastatin 2-aminopyrimidine hemihydrate in a series of solvents at room temperature is provided in Table 2 given below: […]
The nature of data set [6]: Humidity stability, stored at room temperature at RH 100% (XRPD). The format is physicochemical. Particulars: RH of 100%, 24 h. The text has this:
Moreover, the solid maintains its good handling properties.

The mark [7] stands for this setting: 40° C. under vacuum, 20 and 40 hours.

On to `CC(C)c1nc(N(C)S(C)(=O)=O)nc(-c2ccc(F)cc2)c1/C=C/[C@@H](O)C[C@@H](O)CC(=O)O` [RSV, (E)-(3R,5S)-7-[4-(4-Fluorophenyl)-6-isopropyl-2-[(methylsulfonyl)(methyl)amino]pyrimidin-5-yl]-3,5-dihydroxyhept-6-enoic acid, reference compound], for which, in data set [1], the pKa is on record as 4.6. Further, the “change of other impurities on storage” value in data set [2] (setting [7]) is listed as “increased with time”. In addition, the “lactone content after storage” value in data set [2] (40° C. under vacuum) is recorded as 39.84%. The “lactone impurity content of starting product” value in data set [2] stood at 17.267%.

In the case of `c1ccc2nccnc2c1` [quinoxaline], the pKa in data set [1] is 0.56.

“Rosuvastatin 2-aminopyrimidine hemihydrate”: the polymorphs observed result in data set [3] is on record as “not observed”. In data set [4], the “crystalline transformation or loss of crystallinity (XRPD)” value is “does not show crystalline transformation (same XRPD) or loss of crystallinity”. Besides, in data set [5] (ACN), the “solubility in ACN” value was found to be 14 vol. The “solubility in AcOEt” value in data set [5] (AcOEt) was 20 vol. For the same compound, in data set [5] (Acetone), the “solubility in Acetone” value amounted to 4 vol. Besides, in data set [5] (EtOH), the “solubility in EtOH” value was 10 vol. The “solubility in MIK” value in data set [5] (MIK) turned out to be 45 vol. For the same compound, the “solubility in MeOH” value in data set [5] (MeOH) amounted to 3 vol. For the same compound, the “solubility in THF” value in data set [5] (THF) was 2 vol. In addition, the “XRPD / crystallinity after humidity exposure” value in data set [6] is “same XRPD without loss of crystallinity”. Moreover, in data set [2] (setting [7]), the “change of other impurities on storage” value is recorded as “negligible” and the “new impurities on storage” value is “No new impurities were observed”. Also, the “lactone content after storage” value in data set [2] (40° C. under vacuum) was 0.091%. Also, the “chemical stability compared to Rosuvastatin acid” value in data set [2] (40° C. under vacuum, listed as Co-crystal Rosuvastatin 2-aminopyrimidine hemihydrate) is reported as “higher than the Rosuvastatin acid”. Moreover, the “chemical stability compared to Rosuvastatin acid” value in data set [2] (40° C. under vacuum, listed as co-crystal) is recorded as “higher than the stability of the Rosuvastatin acid”. Further, the “lactone impurity content of starting product” value in data set [2] is listed as 0.036%.

As a reminder, the pKa is the negative logarithm of the acid dissociation constant.
